Laboratory results reported in patent US10179914B2, “CDC25A inhibitor for the treatment of drug resistant cancer or for the prevention of tumor relapse” (INSERM (INSTITUT NATIONAL DE LA SANTÉ ET DE LA RECHERCHE …, priority 2014, dated 2019).

Assays:
CDC25A [1] = test: CDC25A protein level by western blot; assay type: cell-based, human; details: for CDC25A protein level: 2 hours
Experimental: (a) MV4-11 (left panel) and MOLM-14 (right panel) FLT3-ITD expressing cells were treated for 2 hours with FLT3 inhibitor III (100 nM), and the protein levels of CDC25A, CDC25B, CDC25C, Cyclin A, Cyclin D1 and p27Kip1 were analyzed by western blot. (b) MOLM-14 (FLT3-ITD postive), KG1 and HL-60 (FLT3 wt positive) and K562 (FLT3 negative) cell lines were treated for 2 hours with FLT3 inhibitor III and the level of CDC25A was analyzed by western blot. Actin was used as a loading control.
(a) MV4-11 (left panel) and MOLM-14 (right panel) cells were treated for 2 hours with STAT5 inhibitor (100 nM). CDC25A, Pim1, and STAT5 protein and phosphorylation levels were analyzed by western blot. (b) MV4-11 and MOLM-14 cells were transfected for 24 hours with STAT5A/B siRNA and the impact on CDC25A protein level was analyzed by western blot. […] Actin was used as a loading control in these experiments. ns: non specific.
(a) MV4-11 cells were first treated by cycloheximide (50 μg/mL) for 90 minutes in order to completely down regulate CDC25A. […] The FLT3 inhibitor was added 30 minutes before medium wash. This western blot is representative of three independent experiments. […] (b) CDC25A mRNA expression was measured by quantitative RT-PCR after FLT3 inhibition for 2 hours (100 nM). […] (c) MV4-11 cells were treated with cycloheximide (50 μg/mL) for the indicated times. FLT3 inhibitor III (100 nM) was added 30 minutes before cycloheximide treatment, and left in the medium. This western blot is representative of three independent experiments.
Cell lines and reagents. […] Concerning MOLM-14 cell line, the presence of a monoallelic 21 bp FLT3-ITD mutation and of an MLL-containing ins(11; 9)(q23;p22p23) were verified (Hematology laboratory of Toulouse University Hospital, Prof E. Delabesse and Dr I. Luquet). KG1 and HL-60 (ACC-14 and ACC-3, DSMZ) cell lines were grown in Iscove's Modified Dulbecco's Medium (IMDM, Gibco) plus 20% FBS. All cells were grown in the presence of 100 units/ml of penicillin and streptomycin (Invitrogen) at 37° C. and 5% CO2.
siRNA. The MV4-11 cell line was transfected with the Amaxa nucleofection technology (Lonza, Koeln, Germany). […] Twenty-four or forty-eight hours after transfection, cells were counted (trypan blue staining), and western blotting was performed.
Western blot. 2×10^6 cells were usually lysed in 100 μL of NuPAGE® LDS Sample Buffer (Novex, Life Technologies, Carlsbad, Calif., USA), sonicated for 15 seconds, and boiled for 3 minutes. Proteins were then resolved on NuPAGE® 4-12% Bis-Tris Gels and transferred to nitrocellulose membrane. Saturation of the membrane was done for 1 hour in Tris Buffer Saline with Tween 0.1% (TBS-T) containing 5% non-fat milk or 5% bovine serum albumin. Membranes were blotted with proper antibodies overnight at 4° C., washed thrice with TBS-T, and incubated for 30 minutes with HRP-conjugated secondary antibody (Promega, Madison, Wis., USA).

Cdc25C = Cdc25C (Homo sapiens, UniProt P30307); details: cited from earlier work
Chain of Cdc25C (P30307 whole entry): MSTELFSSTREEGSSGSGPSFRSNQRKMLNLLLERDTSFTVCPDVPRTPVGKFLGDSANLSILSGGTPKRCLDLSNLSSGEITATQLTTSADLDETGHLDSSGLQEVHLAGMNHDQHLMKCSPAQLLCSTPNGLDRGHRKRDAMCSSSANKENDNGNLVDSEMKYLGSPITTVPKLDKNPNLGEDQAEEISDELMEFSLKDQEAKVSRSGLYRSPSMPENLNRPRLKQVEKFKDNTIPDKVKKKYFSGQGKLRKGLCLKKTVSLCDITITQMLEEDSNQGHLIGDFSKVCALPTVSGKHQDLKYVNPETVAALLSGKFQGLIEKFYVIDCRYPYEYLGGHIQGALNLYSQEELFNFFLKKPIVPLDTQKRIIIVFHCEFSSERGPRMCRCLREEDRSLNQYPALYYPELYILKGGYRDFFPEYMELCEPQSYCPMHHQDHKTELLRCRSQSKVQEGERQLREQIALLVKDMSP

Cdc25A [2] = molecular target: Cdc25A (Homo sapiens, UniProt P30304); details: cited from earlier work
Chain of Cdc25A (P30304 whole entry): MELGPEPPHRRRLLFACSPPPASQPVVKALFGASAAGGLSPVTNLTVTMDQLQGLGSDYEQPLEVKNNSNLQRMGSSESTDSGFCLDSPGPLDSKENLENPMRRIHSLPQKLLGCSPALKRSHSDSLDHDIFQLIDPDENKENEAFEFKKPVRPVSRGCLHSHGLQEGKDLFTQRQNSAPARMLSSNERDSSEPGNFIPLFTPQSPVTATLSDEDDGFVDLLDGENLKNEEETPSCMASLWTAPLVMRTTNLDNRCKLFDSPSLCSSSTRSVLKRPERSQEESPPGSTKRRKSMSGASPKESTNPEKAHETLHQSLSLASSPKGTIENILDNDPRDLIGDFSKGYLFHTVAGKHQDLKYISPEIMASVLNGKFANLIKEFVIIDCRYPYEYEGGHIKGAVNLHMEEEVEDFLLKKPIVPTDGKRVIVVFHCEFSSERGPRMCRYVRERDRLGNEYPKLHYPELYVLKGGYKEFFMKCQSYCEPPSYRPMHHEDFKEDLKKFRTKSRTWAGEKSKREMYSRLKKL

Cdc25B = molecular target: T1, Cdc25B (Homo sapiens, UniProt P30305); details: cited from earlier work
T1 sequence (P30305 1-580): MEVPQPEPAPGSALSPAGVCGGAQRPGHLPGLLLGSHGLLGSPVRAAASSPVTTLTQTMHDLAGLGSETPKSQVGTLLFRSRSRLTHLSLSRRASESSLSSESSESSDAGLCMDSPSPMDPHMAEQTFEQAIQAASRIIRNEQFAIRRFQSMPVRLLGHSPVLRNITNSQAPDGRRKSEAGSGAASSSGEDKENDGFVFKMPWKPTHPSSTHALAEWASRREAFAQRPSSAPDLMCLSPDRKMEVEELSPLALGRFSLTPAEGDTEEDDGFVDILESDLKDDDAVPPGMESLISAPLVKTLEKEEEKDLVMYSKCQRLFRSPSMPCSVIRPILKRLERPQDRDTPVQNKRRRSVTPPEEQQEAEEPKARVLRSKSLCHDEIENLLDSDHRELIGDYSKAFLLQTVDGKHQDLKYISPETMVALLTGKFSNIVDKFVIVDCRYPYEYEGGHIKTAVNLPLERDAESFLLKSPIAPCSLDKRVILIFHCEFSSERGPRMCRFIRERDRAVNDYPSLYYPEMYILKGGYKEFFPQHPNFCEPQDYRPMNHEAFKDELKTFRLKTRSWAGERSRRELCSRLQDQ

Mia-Paca-2 tumors = details: active after oral administration; cited from earlier work
[3] = tested on: human cell lines (tumor cell proliferation); details: cited from earlier work
CDC25A mRNA = CDC25A mRNA by quantitative RT-PCR; assay type: cell-based, human; details: two hours, 100 nM, MOLM-14 cells
Experimental: (a) MV4-11 cells were first treated by cycloheximide (50 μg/mL) for 90 minutes in order to completely down regulate CDC25A. Cells were then placed in normal culture conditions in the presence (lower panel) or the absence (upper panel) of FLT3 inhibitor (100 nM), and western blot analysis of CDC25A was performed at the indicated times. The FLT3 inhibitor was added 30 minutes before medium wash. This western blot is representative of three independent experiments. […] (b) CDC25A mRNA expression was measured by quantitative RT-PCR after FLT3 inhibition for 2 hours (100 nM). […] (c) MV4-11 cells were treated with cycloheximide (50 μg/mL) for the indicated times. FLT3 inhibitor III (100 nM) was added 30 minutes before cycloheximide treatment, and left in the medium. This western blot is representative of three independent experiments.
Quantitative RT-PCR. Total RNA was extracted by RNeasy Kit (Qiagen) according to the manufacturer. RNA quality and purity was assessed by using the Agilent RNA 6000 Nano kit (Agilent Technologies, Santa Clara, Calif., USA). cDNA was generated with the SuperScript III First-Strand Synthesis System for RT-PCR (Invitrogen) following the manufacturer instructions. […] Results were analyzed with the LightCycler®480 software release 1.5.0 SP4 using the conventional ΔΔCt method.

[4] = tested on: FLT3-wild type primary AML samples; test: Differentiation of FLT3 wild-type primary AML samples; assay type: cell-based, human; details: same conditions
Source text: Patient samples. Patient AML samples were obtained after informed consent in accordance with the Declaration of Helsinki and stored at the HIMIP collection. According to the French law, HIMIP collection has been declared to the Ministry of Higher Education and Research (DC 2008-307 collection 1) and obtained a transfer agreement (AC 2008-129) after approbation by ethical committees (Comité de Protection des Personnes Sud-Ouest et Outremer II and APHP ethical committee). Clinical and biological annotations of the samples have been declared to the CNIL (Comité National Informatique et Libertés i.e. Data processing and Liberties National Committee). Frozen cells were thawed in IMDM medium with 20% FBS and immediately processed for treatment. All patients were diagnosed at the Department of Hematology of Toulouse University Hospital.
Co-cultures. […]
Flow cytometry. Apoptotic cells were detected with Annexin V-FITC detection kit from BD Pharmingen (San Diego, Calif., USA) according to the manufacturer instructions. […] Data were collected on a LSRII or a LSRFortessa cytometer (BD Biosciences), and analyzed with FlowJo software. […]

MOLM-14 and MV4-11 cells = test: Differentiation of FLT3-ITD AML cell lines (surface markers, morphology); assay type: cell-based, human; details: another CDC25 inhibitor
Experimental: (a-b) MOLM-14 and MV4-11 cells were treated for different times with IRC-083864 (100 nM and 200 nM) and the expression of the cell surface markers CD11b, CD14 and CD15 were followed by flow cytometry analysis. (c) MOLM-14 and MV4-11 cells were treated for different times with IRC-083864 (100 nM) and morphological changes were estimated by microscopy after cells were cytospun and stained at days 8 and 13. Original magnification ×100. (d) MOLM-14 cells were treated for different times with IRC-083864 (100 nM) and c-myc expression as well as C/EBPα phosphorylation on serine 21 were analyzed by western blot at day 1, and C/EBPε expression after 6 days of treatment. (e) MOLM-14 cells were transfected with CDC25A shRNA The expression of the cell surface markers CD11b, CD14 and CD15 were followed by flow cytometry analysis at day 3 and 6 (upper panel), and their morphology was analyzed by microscopy after 6 days (lower panel). Original magnification ×100. (f) MOLM-14 cells were transfected with CDC25A siRNA, and their morphology was analyzed by microscopy after 3 days (upper panel). Original magnification ×100. The efficiency of CDC25A siRNA was assessed by western blot analysis (lower panel).
Lentiviral infections. To generate lentiviral vectors expressing CDC25A protein, sequences were cloned into the pTrip-TAL-Ires-GFP lentiviral vector. We used 293-T packaging cells, co-transfected with lentiviral protein (GAG, POL, and ENV) encoding plasmids, and plasmids containing a control or CDC25A genes, separately. Supernatants containing lentivirus were collected 48 h after transfection, during 3 consecutive days. MOLM-14 cells were plated at 5×10^5 cells in 200 μl in serum-free medium and 5 μl of lentiviral supernatant was added during 3 h. Cells were then grown in 10% FBS RPMI medium.
Flow cytometry. Apoptotic cells were detected with Annexin V-FITC detection kit from BD Pharmingen (San Diego, Calif., USA) according to the manufacturer instructions. To evaluate AML cell differentiation, cells were stained for 30 min with the following anti-human monoclonal antibodies: CD11b-PE (Beckman Coulter), CD14-FITC (BD Biosciences), CD15-APC (BD Biosciences). For patient samples, additional hCD45-APC-H7 (BD Biosciences), Annexin V-Pacific Blue (BioLegend, San Diego, Calif., USA) and 7-AAD (Sigma) were used; and for bone marrow mice cells, additional CD33-FITC, CD44-PE Cy7, mCD45-PerCP Cy 5.5, CD14-Alexa 700 were used. Data were collected on a LSRII or a LSRFortessa cytometer (BD Biosciences), and analyzed with FlowJo software. A minimum of 10,000 events was collected.
Morphological examination. […] were spun at 500 rpm for 5 minutes onto glass slides and May-Grünwald-Giemsa stained at the Toulouse University Hospital hematology laboratory.

human Hep 3B tumor cells = details: read-out: IC50 growth of human Hep 3B tumor cells; cited from earlier work
[5] = tested on: transplanted rat hepatoma cells (Fisher F344); details: delivered intraperitoneally; cited from earlier work

CC(C)(C)c1cc(NC(=O)Nc2ccc(-c3cn4c(n3)sc3cc(OCCN5CCOCC5)ccc34)cc2)no1 [AC220, quizartinib]
CDC25A protein level (CDC25A [1]; MV4-11 and MOLM-14 cells): induced CDC25A down-regulation

Cc1nc2c(s1)C(=O)C=C(NCCN(C)C)C2=O [BN82685, reference compound]
IC50 (Cdc25C): 171 nM
IC50 (Cdc25A [2]): 250 nM
IC50 (Cdc25B): 250 nM
growth of Mia-Paca-2 tumors xenografted into nude mice (Mia-Paca-2 tumors): inhibited the growth
growth inhibition in presence of classical resistance mechanisms (drug efflux pumps, P-glycoprotein, multi-drug resistance proteins) [3]: unaffected
duration of proliferation inhibition after short treatment ([3]; treatment time 1 h): 96 h

c1ccc(-c2cnc(Nc3ccc(OCCN4CCCC4)cc3)s2)cc1 [FLT3 inhibitor III]
CDC25A mRNA level (CDC25A mRNA): significantly reduced
CDC25A protein level (CDC25A [1]; KG1, HL-60 (FLT3-wild type) and K562 (FLT3 non-expressing) cells): did not modify
CDC25A protein level (CDC25A [1]; MV4-11 and MOLM-14 cells): induced CDC25A down-regulation
stability of CDC25A protein (half-life with cycloheximide) (CDC25A [1]; cycloheximide 50 μg/mL, inhibitor 100 nM): did not significantly modify
accumulation of CDC25A protein (rate of synthesis) (CDC25A [1]; time course, 100 nM, FIG. 3a): significantly decreased

O=C1C(SCCO)=C(SCCO)C(=O)c2ccccc21 [NSC-95397, reference compound]
differentiation of FLT3-wild type samples [4]: no evidence of differentiation
CD11b, CD14 and CD15 markers expression (MOLM-14 and MV4-11 cells): modifications
nuclear morphology (MOLM-14 and MV4-11 cells): nuclear morphological changes

O=C1C(SCCO)=C(SCCO)C(=O)N1c1ccc(-c2ccccc2)cc1 [PM20]
IC50 (human Hep 3B tumor cells): 700 nM
growth of transplanted rat hepatoma cells in vivo [5]: inhibits the growth
